Test results reported in ChEMBL document CHEMBL3875143, “Novel multi-target-directed ligands for Alzheimer's disease: Combining cholinesterase inhibitors and 5-HT6 receptor antagonists. Design, synthesis and biological evaluation” (Eur J Med Chem, 2016).
Active and inactive are the calls of the source. No cut-off for these calls is given here.

Tests used:
[1] = target: Cholinesterase (Equus caballus) (UniProt P81908); conditions: 9 to 30 nM
[2] = target: Cholinesterase (Equus caballus, UniProt P81908)
Chain of Cholinesterase (Equus caballus, UniProt P81908) (P81908 whole entry): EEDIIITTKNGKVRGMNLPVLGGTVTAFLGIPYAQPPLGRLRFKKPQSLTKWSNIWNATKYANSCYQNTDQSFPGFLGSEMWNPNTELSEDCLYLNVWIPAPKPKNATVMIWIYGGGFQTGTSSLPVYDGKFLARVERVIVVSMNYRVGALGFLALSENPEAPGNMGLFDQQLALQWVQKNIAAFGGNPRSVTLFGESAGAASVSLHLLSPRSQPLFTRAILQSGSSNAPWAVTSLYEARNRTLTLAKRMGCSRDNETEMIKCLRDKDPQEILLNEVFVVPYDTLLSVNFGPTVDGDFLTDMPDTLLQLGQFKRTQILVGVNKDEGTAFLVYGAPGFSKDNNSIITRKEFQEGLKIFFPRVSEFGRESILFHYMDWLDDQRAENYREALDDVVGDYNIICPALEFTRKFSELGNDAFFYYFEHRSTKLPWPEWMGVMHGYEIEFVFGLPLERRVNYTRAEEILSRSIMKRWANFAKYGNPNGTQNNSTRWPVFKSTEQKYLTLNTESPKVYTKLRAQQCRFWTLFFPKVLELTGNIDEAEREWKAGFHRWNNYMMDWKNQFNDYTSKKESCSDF
Description: Inhibition of equine serum BuChE preincubated for 5 mins followed by butyrylthiocholine iodide substrate addition measured after 5 mins by Ellman's method

[3] = test system: Rattus norvegicus; test: Reversal of scopolamine-induced hyperlocomotion in ip dosed Wistar rat; assay type: functional, organism-based
[4] = test system: Rattus norvegicus; test: Reduction in spontaneous locomotor activity in ip dosed Wistar rat pretreated for 30 mins by open field assay; assay type: functional, organism-based
[5] = target: Cholinesterase (Homo sapiens, UniProt P06276); test: Inhibition of human recombinant BuChE preincubated for 5 mins followed by butyrylthiocholine iodide substrate addition measured after 5 mins by Ellman's method
Chain of Cholinesterase (Homo sapiens, UniProt P06276) (P06276 whole entry): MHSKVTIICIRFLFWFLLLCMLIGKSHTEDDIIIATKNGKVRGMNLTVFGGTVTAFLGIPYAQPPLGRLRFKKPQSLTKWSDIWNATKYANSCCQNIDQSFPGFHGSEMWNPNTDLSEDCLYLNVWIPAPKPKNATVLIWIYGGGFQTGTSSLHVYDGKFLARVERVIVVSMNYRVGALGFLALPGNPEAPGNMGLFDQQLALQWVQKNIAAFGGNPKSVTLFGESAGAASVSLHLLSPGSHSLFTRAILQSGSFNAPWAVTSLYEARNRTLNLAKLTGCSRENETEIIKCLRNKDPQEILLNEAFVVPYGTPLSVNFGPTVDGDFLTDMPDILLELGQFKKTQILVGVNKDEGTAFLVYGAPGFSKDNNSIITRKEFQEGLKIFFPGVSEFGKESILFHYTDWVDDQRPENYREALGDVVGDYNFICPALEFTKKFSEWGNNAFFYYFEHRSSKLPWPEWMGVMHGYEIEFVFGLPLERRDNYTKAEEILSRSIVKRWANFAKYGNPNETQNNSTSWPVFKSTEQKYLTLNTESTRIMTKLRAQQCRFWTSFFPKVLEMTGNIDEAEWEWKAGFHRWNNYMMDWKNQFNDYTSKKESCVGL

[6] = target: Acetylcholinesterase (Homo sapiens, UniProt P22303); test: Inhibition of human recombinant AChE preincubated for 5 mins followed by acetylthiocholine iodide substrate addition measured after 5 mins by Ellman's method
Chain of Acetylcholinesterase (Homo sapiens, UniProt P22303) (P22303 whole entry): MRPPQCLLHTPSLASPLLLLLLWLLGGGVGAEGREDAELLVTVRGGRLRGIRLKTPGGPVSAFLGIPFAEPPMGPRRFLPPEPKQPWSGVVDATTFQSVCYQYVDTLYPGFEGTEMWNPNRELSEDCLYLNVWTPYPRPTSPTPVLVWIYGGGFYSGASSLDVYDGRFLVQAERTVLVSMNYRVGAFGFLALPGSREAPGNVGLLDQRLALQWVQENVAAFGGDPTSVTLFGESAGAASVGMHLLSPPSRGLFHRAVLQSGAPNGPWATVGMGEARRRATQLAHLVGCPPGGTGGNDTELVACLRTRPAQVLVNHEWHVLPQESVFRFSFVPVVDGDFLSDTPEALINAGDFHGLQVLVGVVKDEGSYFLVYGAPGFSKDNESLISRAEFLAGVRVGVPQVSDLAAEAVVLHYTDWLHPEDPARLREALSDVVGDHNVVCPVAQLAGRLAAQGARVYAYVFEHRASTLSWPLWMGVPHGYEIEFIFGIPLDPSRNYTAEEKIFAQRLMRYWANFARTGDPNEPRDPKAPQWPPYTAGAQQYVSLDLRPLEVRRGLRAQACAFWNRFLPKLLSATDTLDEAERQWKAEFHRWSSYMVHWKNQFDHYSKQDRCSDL

[7] = Reduction of spontaneous locomotor activity below baseline in Wistar rat at 10 mg/kg, ip in presence of scopolamine by open field assay; assay type: ADME, organism-based; conditions: in vivo
[8] = target: 5-hydroxytryptamine receptor 6 (Homo sapiens, UniProt P50406); test: biochemical
Chain of 5-hydroxytryptamine receptor 6 (P50406 whole entry): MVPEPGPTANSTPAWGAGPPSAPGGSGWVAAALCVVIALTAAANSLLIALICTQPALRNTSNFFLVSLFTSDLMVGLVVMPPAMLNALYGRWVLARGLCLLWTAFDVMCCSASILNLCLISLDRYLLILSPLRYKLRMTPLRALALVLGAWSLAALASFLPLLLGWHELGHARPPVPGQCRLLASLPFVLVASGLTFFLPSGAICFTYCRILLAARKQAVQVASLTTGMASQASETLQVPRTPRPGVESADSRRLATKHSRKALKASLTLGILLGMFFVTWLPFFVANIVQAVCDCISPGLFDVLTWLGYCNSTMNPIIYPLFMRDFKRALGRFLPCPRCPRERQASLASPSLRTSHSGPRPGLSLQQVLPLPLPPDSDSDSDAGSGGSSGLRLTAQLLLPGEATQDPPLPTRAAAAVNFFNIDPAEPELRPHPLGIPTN
Description: Displacement of [3H]-LSD from human recombinant 5-HT6 receptor expressed in CHOK1 cell membranes measured after 60 mins by scintillation counter

[9] = target: Acetylcholinesterase (Electrophorus electricus) (UniProt O42275); test: Non-competitive inhibition of electric eel AChE at 30 to 120 nM using varying levels of acetylthiocholine iodide substrate preincubated for 5 mins followed by substrate addition measured after 5 mins by Line-weaver burk plot method
Chain of Acetylcholinesterase (Electrophorus electricus) (O42275 24-633 limits assumed): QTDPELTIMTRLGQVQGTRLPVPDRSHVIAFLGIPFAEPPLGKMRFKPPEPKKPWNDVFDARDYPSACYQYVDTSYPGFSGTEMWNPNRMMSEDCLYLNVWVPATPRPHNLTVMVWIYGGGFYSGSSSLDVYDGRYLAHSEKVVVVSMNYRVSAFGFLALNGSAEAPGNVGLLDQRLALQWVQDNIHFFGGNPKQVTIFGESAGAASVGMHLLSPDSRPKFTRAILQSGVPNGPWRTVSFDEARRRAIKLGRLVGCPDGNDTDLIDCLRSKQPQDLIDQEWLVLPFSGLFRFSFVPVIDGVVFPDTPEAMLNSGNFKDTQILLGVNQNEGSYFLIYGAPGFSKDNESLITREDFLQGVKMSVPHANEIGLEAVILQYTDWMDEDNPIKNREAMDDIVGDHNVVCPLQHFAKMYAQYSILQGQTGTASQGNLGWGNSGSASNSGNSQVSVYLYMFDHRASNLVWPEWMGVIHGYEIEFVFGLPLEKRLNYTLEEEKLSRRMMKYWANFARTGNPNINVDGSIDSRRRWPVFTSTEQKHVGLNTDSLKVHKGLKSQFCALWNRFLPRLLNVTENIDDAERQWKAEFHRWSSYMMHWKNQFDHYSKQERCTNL

[10] = target: Acetylcholinesterase (Electrophorus electricus, UniProt O42275)
Chain of Acetylcholinesterase (Electrophorus electricus, UniProt O42275) (O42275 whole entry): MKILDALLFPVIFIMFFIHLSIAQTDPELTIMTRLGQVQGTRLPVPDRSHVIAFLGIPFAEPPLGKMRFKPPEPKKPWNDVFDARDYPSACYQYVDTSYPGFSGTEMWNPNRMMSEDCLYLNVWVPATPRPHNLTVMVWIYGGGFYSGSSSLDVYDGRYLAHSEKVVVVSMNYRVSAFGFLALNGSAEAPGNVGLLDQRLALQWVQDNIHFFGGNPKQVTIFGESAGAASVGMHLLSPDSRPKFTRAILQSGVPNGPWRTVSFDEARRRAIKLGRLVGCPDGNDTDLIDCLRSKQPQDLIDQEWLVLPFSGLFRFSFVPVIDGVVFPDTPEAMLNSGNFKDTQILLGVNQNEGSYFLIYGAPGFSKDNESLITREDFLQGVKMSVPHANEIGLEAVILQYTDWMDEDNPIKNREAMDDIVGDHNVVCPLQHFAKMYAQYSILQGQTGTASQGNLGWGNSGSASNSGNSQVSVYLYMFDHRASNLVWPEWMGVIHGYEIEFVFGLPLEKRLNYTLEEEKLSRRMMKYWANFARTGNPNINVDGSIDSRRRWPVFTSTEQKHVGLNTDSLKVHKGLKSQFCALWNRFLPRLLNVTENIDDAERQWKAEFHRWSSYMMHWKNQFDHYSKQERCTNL
Description: Inhibition of electric eel AChE preincubated for 5 mins followed by acetylthiocholine iodide substrate addition measured after 5 mins by Ellman's method

[11] = test system: Rattus norvegicus; test: Reduction in spontaneous locomotor activity in Wistar rat at 10 mg/kg, ip pretreated for 30 to 180 mins by open field assay; assay type: functional, organism-based
[12] = PAMPA, 2 h
[13] = target: Cholinesterase (Equus caballus) (UniProt P81908); test: Inhibition of equine serum BuChE at 10 uM preincubated for 5 mins followed by butyrylthiocholine iodide substrate addition measured after 5 mins by Ellman's method relative to control

Chain of Cholinesterase (Equus caballus) (P81908 whole entry): as the sequence (P81908 whole entry) above

Compound	IC50 [2] [µM]	Ki [8] [µM]	IC50 [10] [µM]	also measured
O=S(=O)(c1ccccc1)n1ccc2c(N3CCN(CCCCCCNc4c5c(nc6ccccc46)CCCC5)CC3)cccc21	0.0082	0.002	0.0459	inhibition [1]: Active; Activity [3]: Dose-dependent effect; Activity [4]: Dose-dependent effect; IC50 [5]: 0.0297 µM; IC50 [6]: 0.0129 µM; Activity [7]: Non-Toxic; inhibition [9]: Active; Activity [11]: Active
O=S(=O)(c1ccccc1)n1ccc2c(N3CCN(CCCNc4c5c(nc6ccccc46)CCCC5)CC3)cccc21	0.0142	0.006	0.0121	IC50 [6]: 0.0097 µM
CN(CCCCCN1CCN(c2cccc3c2ccn3S(=O)(=O)c2ccccc2)CC1)Cc1ccccc1	3.07	0.01	–	–
O=S(=O)(c1ccccc1)n1ccc2c(N3CCN(CCNc4c5c(nc6ccccc46)CCCC5)CC3)cccc21	0.0168	0.01	0.0075	IC50 [6]: 0.0436 µM
O=S(=O)(c1ccccc1)n1ccc2c(N3CCN(CCNC4CCN(Cc5ccccc5)C4)CC3)cccc21 (stereo unspecified)	3.39	0.013	–	–
O=S(=O)(c1ccccc1)n1ccc2c(N3CCN(CCNCc4ccccc4)CC3)cccc21	1.31	0.012	–	–
O=S(=O)(c1ccccc1)n1ccc2c(N3CCN(CCNC4CCN(Cc5ccccc5)CC4)CC3)cccc21	10.6	0.039	–	–
O=S(=O)(c1ccccc1)n1ccc2c(N3CCN(CCCNCc4ccccc4)CC3)cccc21	0.608	0.016	–	–
O=S(=O)(c1ccccc1)n1ccc2c(N3CCN(CCCCCNCc4ccccc4)CC3)cccc21	1.67	0.008	4.41	–
CC(C)NCC(O)COc1cccc2ccccc12 (stereo unspecified) [PROPRANOLOL]	–	–	–	logPeff [12]: -3.7
O=S(=O)(c1ccccc1)n1ccc2c(N3CCN(CCCCCCNCc4ccccc4)CC3)cccc21	2.38	0.002	–	–
O=S(=O)(c1ccccc1)n1ccc2c(N3CCNCC3)cccc21	–	–	–	inhibition [13]: 45.8%
O=S(=O)(c1ccccc1)n1ccc2c(N3CCN(CCCNC4CCN(Cc5ccccc5)CC4)CC3)cccc21	3.22	0.002	–	–
CN(CCCN1CCN(c2cccc3c2ccn3S(=O)(=O)c2ccccc2)CC1)Cc1ccccc1	–	0.01	–	inhibition [13]: 27.8%
CC(=O)[C@H]1CC[C@H]2[C@@H]3CCC4=CC(=O)CC[C@]4(C)[C@H]3CC[C@]12C [PROGESTERONE]	–	–	–	logPeff [12]: -3.8
CN(CCCCN1CCN(c2cccc3c2ccn3S(=O)(=O)c2ccccc2)CC1)Cc1ccccc1	6.22	0.004	–	–
O=S(=O)(c1ccccc1)n1ccc2c(N3CCN(CCCCNC4CCN(Cc5ccccc5)CC4)CC3)cccc21	2.16	0.016	–	–
O=S(=O)(c1ccccc1)n1ccc2c(N3CCN(CCCCCCCCNc4c5c(nc6ccccc46)CCCC5)CC3)cccc21	0.0124	0.036	0.0071	IC50 [6]: 0.0013 µM
CN(CCN1CCN(c2cccc3c2ccn3S(=O)(=O)c2ccccc2)CC1)Cc1ccccc1	1.95	0.015	–	–
O=S(=O)(c1ccccc1)n1ccc2c(N3CCN(CCCCCCCNc4c5c(nc6ccccc46)CCCC5)CC3)cccc21	0.01	0.036	0.0151	IC50 [6]: 0.0062 µM
O=S(=O)(c1ccccc1)n1ccc2c(N3CCN(CCCCCNc4c5c(nc6ccccc46)CCCC5)CC3)cccc21	0.0213	0.008	0.057	IC50 [6]: 0.0182 µM
O=S(=O)(c1ccccc1)n1ccc2c(N3CCN(CCCCNCc4ccccc4)CC3)cccc21	2.21	0.008	–	–
